Source: patent US20240247236A1, “METHOD FOR PRODUCING PLURIPOTENT STEM CELLS” (KANEKA CORPORATION, priority 2021, published 2024)

Test system: human iPS cell line 201B7
Assay: Quantitative real-time PCR analysis of germ layer marker genes in suspension culture of human iPS cell line 201B7
Assay type: cell-based
Settings: WNT inhibitor = IWR-1-endo 20 μM, PKCβ inhibitor = GF109203X 3 μM
[1] = day 10 of suspension culture, compared with adherent culture (Reference Example 1)

Experimental: Human iPS cell line 201B7 after adherent culture in the same manner as in Reference Example 1 was treated with Accutase for 5 minutes to be detached from the culture surface, and the cells were dispersed into a single state by pipetting. The cells were suspended in StemFit (registered trademark) AK02N medium containing Y-27632 at a final concentration of 10 μM, and some of the cells were stained with trypan blue, followed by measurement of the viable cell count. A cell suspension was prepared using StemFit (registered trademark) AK02N medium containing Y-27632 at a final concentration of 10 μM such that the cell suspension included 2×10^5 cells per 1 mL. The cell suspension in an amount of 1 mL was seeded per well in a 12-well plate for suspension culture (Sumitomo Bakelite Co., Ltd.). The plate seeded with cells was rotated on a rotary shaker at a speed of 98 rpm along a horizontal plane in a circle with a rotation width (diameter) of 25 mm, during which the suspension culture was performed at 37° C. in a 5% CO2 environment.
The day when the cells were seeded was defined as day 0 of culture, passage was performed on day 5 of culture, and suspension culture was performed until day 10 of culture. Medium exchange was carried out every day. As for the method of medium exchange, the entire amount of the medium containing cell masses was collected into a centrifuge tube, and the tube was allowed to stand for about 5 minutes, thereby settling the cell masses. Then, the culture supernatant was removed, and the residue was gently resuspended in StemFit (registered trademark) AK02N medium, and returned to the original well.
Upon medium exchange, Y-27632 was added to the medium at a final concentration of 5 μM on days 1 and 6 of culture, and Y-27632 was added to the medium at a final concentration of 2 μM on days 2 and 7 of culture. On day 5 of culture, the cell masses and culture supernatant were collected from the wells into a centrifuge tube and allowed to stand for about 5 minutes, thereby settling the cell masses. Then, the culture supernatant was removed.
After adding 1 mL of Accutase to the cell masses, the cell masses were treated at 37° C. for 10 minutes and then dispersed into a single-cell state by pipetting. The cells were suspended in StemFit (registered trademark) AK02N medium containing Y-27632 at a final concentration of 10 μM, and some of the cells were stained with trypan blue, followed by measurement of the viable cell count. A cell suspension was prepared using StemFit (registered trademark) AK02N medium containing Y-27632 at a final concentration of 10 μM such that the cell suspension included 2×10^5 cells per 1 mL. Then, cell seeding was performed in the same manner as in the case of day 0 to continue the suspension culture.
Suspension culture was performed in the same manner as in Reference Example 2, except that IWR-1-endo was added as a WNT inhibitor at a final concentration of 20 μM to the seeding medium and the medium exchanged for new medium for suspension culture.

O=C(Nc1cccc2cccnc12)c1ccc(N2C(=O)[C@@H]3[C@H](C2=O)[C@@H]2C=C[C@H]3C2)cc1 [IWR-1-endo, 4-(1,3,3a,4,7,7a-hexahydro-1,3-dioxo-4,7-methano-2H-isoindole-2-yl)-N-8-quinolinyl-benzamide] was tested, and the “expression level of PAX6 (ectodermal marker gene)” value [1] was “greater than that in Reference Example 1”, the “expression level of SOX17 (endodermal marker gene)” value [1] was “suppressed to the expression levels acceptable for the pluripotent stem cells as with Reference Example 1” and the “expression level of TBXT (mesodermal marker gene)” value [1] was “suppressed to the expression levels acceptable for the pluripotent stem cells as with Reference Example 1”. The “spontaneous differentiation into ectoderm” value (suspension culture) was “weak suppressive effect” and the “spontaneous differentiation into mesoderm and endoderm” value (suspension culture) was “can effectively suppress”.
